Laboratory results published in paper PMC9935901, “B-lymphoid tyrosine kinase-mediated FAM83A phosphorylation elevates pancreatic tumorigenesis through interacting with β-catenin” (Signal Transduction and Targeted Therapy, 2023).

Legend:
[1] = system: BLK (FAM83A tyrosine phosphorylation); assay: BLK-mediated FAM83A tyrosine phosphorylation in HEK293T cells; format: cell-based; details: 10 μM; HEK293T with or without BLK overexpression; n = 3
Text: Cell lysates were used for IP and western blotting with the indicated antibodies (n = 3). f Level of total tyrosine phosphorylation of Flag-tagged FAM83A and its Y138A mutant in HEK293T cells after BLK kinase knockdown using two specific small interfering RNAs (siBLK#1 and siBLK#2). Cell lysates were used for IP and western blotting with the indicated antibodies (n = 3). g, h Level of total tyrosine phosphorylation of Flag-tagged FAM83A and its Y138A mutant in HEK293T cells with or without BLK kinase overexpression and saracatinib (BLK inhibitor, 10 μM)/PP2 (LCK or FYN inhibitor, 10 μM) treatment. Cell lysates were used for IP and western blotting with the indicated antibodies (n = 3). i The BLK kinases was obtained from the immunoprecipitate of HEK293T cell lysates that transfected with either HA-tagged BLK wild-type, BLK kinase-dead mutant (Y389A) or BLK constitutive activated mutant with the deletion of the C-terminal auto-inhibitory domain (BLK ΔC) using HA tag antibody. Then the BLK kinases were incubated with the in vitro purified GST-tagged FAM83A protein at 30 °C for 30 min with or without BLK inhibitor saracatinib, and then the reaction products were subjected to western blotting assay (n = 3)
Immunoprecipitation and Western blotting were performed as described previously.[35] GAPDH protein levels were used as loading controls. […]

[2] = system: pancreatic cancer stem cells (PaCSCs), primary PDAC cultures; details: primary PDAC cultures from patient-derived xenografts; ref not given; cited from earlier work
Text: Intricate communication between pancreatic cancer cells and their surrounding environment is driven by a dynamic signaling network of cellular and matrix remodeling enzymes, cytokines, chemokines, and growth factors, which collectively promote tumor growth and treatment resistance. The non-receptor SRC kinase family signaling network is increasingly recognized as a key player in pancreatic tumorigenesis.[38],[39] Treatment of primary PDAC cultures established from patient-derived xenografts with dasatinib or PP2 reduced the clonogenic, self-renewal, and tumor-initiating capacity of pancreatic ...

[3] = system: PANC-1 xenograft tumor (FAM83A re-expression); assay: Mouse xenograft of FAM83A re-expressing PANC-1 cells, Wnt inhibitor; format: in vivo, nude mice (human PANC-1 cells); details: 20 mg/kg intravenous (Fig. 6 legend) or 50 mg/kg intraperitoneal twice a week (methods); n = 6 or 5
Method: The Wnt inhibitor XAV939 (20 mg/kg) was intravenously injected into the caudal vein of the nude mice one week later after xenograft formation. c Growth curve showing the changes in the tumor volume in mice in different groups from the injection (n = 6 or 5). d Weight of the excised tumors in each group (n = 6 or 5). e, f Representative images of lung and colon metastasis of the nude mice model that tail intravenous injected with PANC-1 cells stably expressed Flag-tagged wild-type FA[MUT], [MUT], or [MUT] mutants were shown. g The number of lung or colon metastasis was quantified per field (n = 5). h, i Representative images and quantification of the soft agarose and plate colony formation assays of PANC-1 cells stably expressed Flag-tagged wild-type FA[MUT], [MUT], or [MUT] mutants (n = 3). j, k Representative images and quantification of the transwell assays without matrigel of PANC-1 cells stably expressed Flag-tagged wild-type FA[MUT], [MUT] or [MUT] mutants (n = 3). l Representative H&E staining images and immunohistochemical images of Ki67, C-myc, and AXIN2 expression in excised tumors tissues. *P < 0.05; **P < 0.01; ***P < 0.001. […] The length and width of the mouse xenograft tumors were measured every 5 days with calipers, and tumor volume (V) was calculated with the following formula: V = [(length × width × width)/2]. […]

| Structure (SMILES) | FAM83A tyrosine phosphorylation [1] | clonogenic, self-renewal, and tumor-initiating capacity of PaCSCs [2] | xenograft tumor size [3] |
| --- | --- | --- | --- |
| CN1CCN(CCOc2cc(OC3CCOCC3)c3c(Nc4c(Cl)ccc5c4OCO5)ncnc3c2)CC1 [saracatinib] | could be reduced by the BLK kinase inhibitor saracatinib | – | – |
| Cc1nc(Nc2ncc(C(=O)Nc3c(C)cccc3Cl)s2)cc(N2CCN(CCO)CC2)n1 [dasatinib] | – | reduced the clonogenic, self-renewal, and tumor-initiating capacity of pancreatic cancer stem cells | – |
| CC(C)(C)n1nc(-c2ccc(Cl)cc2)c2c(N)ncnc21 [PP2] | not LYN kinase inhibitor PP2 | reduced the clonogenic, self-renewal, and tumor-initiating capacity of pancreatic cancer stem cells | – |
| Oc1nc(-c2ccc(C(F)(F)F)cc2)nc2c1CSCC2 [XAV939] | – | – | inhibits the xenograft tumor size mediated by FAM83A re-expression |
